# “And” between values parts separate entries of the source, which are not always exact repeats. Equal values may be shown once.
# Test system: CBDRx Cherry hemp clones
# Test: Foliar spray of MS, MDJ and MS+MDJ on hemp clones: biomass, cannabinoid and terpene analysis
# Assay type: in vivo, Cannabis spp.
# Set-up: CBDA / CBD / THCA / Total CBG / Total cannabinoids: unit not given here
# Conditions: for plants died before the end of the experiment: four plants per treatment group
# Protocol: Methyl salicylate (MS) is an antagonistic compound to the jasmonates. To investigate the effect of MS alone and in conjunction with MDJ, MS (CAS No.: 119-36-8), MDJ, and the combination (MS+MDJ) were applied by foliar spray to CBDRx Cherry hemp clones once per week during both vegetative and flowering phases. Plants were transplanted into 1-gallon pots with Red's soil and put into vegetative light cycle (18L/6D). […] Plants were grown under a total of 12 Boost (Thrive Agritech, NY) 130-watt LED lights set to 18L: 6D photoperiod during the vegetative phase (2 weeks) and this was followed by a 12L: 12D photoperiod during the flowering phase (7 weeks), using the same lighting fixtures. Throughout the nine weeks, all plants were watered when needed with Jack's nutrients.
# MS or MDJ treatments were applied at the following concentrations: [1 mM], [4.25 mM], [7.5 mM] and [10 mM]. Each concentration was prepared from a one molar stock solution diluted with RO water and TWEEN®-20 (1M stock) was added. Each plant was sprayed till dripping, which was approximately 50-75 ml. To apply the combination of the two biochemicals, MS and MDJ were sprayed separately but simultaneously, to ensure each compound was applied evenly onto the plant. Each compound was applied using a SPRAYMASTER Chemical Sprayer (King of Prussia, Pa.).
# Plants were harvested two months after transplant. After harvesting, plants were air dried at room temperature for two weeks. Once plants were sufficiently dry, above ground dry weights were recorded and dried flower samples were collected and sent to a third-party lab for terpene and cannabinoid analysis. Two plants (#3 and #4) in treatment group MDJ [7.5] mM, two plants (#3 and #4) in MS [4.25] mM, one plant (#4) in MS [7.5], and one plant (#4) in MDJ [10] died before the end of the experiment.
# [1] = 1 mM foliar spray, Avg. of group
# [2] = 1 mM foliar spray, individual plant
# [3] = 4.25 mM foliar spray, Avg. of group
# [4] = 4.25 mM foliar spray, individual plant
# [5] = 7.5 mM foliar spray, Avg. of group
# [6] = 7.5 mM foliar spray, individual plant
# [7] = 10 mM foliar spray, Avg. of group
# [8] = 10 mM foliar spray, individual plant
smiles,measurement,setting,value
"CCCCCC1C(=O)CCC1CC(=O)OC (centres unmarked) [MDJ, methyl dihydrojasmonate]",Alpha-bisabolol,[1],0.109 % wt/wt
same,Alpha-humulene,[1],0.08163 % wt/wt
same,Beta-caryophyllene,[1],0.2027 % wt/wt
same,CBCA,[1],0.64
same,CBD,[1],0.105
same,CBDA,[1],12.99
same,CBGA,[1],0.3425
same,Limonene,[1],0.1362 % wt/wt
same,THCA,[1],0.565
same,Total CBD,[1],11.4975
same,Total CBG,[1],4.2075
same,Total cannabinoids,[1],14.6425
same,Total d9THC,[1],0.495
same,alpha-pinene,[1],0.02277 % wt/wt
same,beta-myrcene,[1],1.04 % wt/wt
same,beta-pinene,[1],0.0188 % wt/wt
same,total terpenes,[1],1.7075 % wt/wt
same,Alpha-bisabolol,[2],0.1238 % wt/wt and 0.1069 % wt/wt and 0.094 % wt/wt and 0.1113 % wt/wt
same,Alpha-humulene,[2],0.0944 % wt/wt and 0.0784 % wt/wt and 0.0831 % wt/wt and 0.0706 % wt/wt
same,Beta-caryophyllene,[2],0.2352 % wt/wt and 0.2003 % wt/wt and 0.2076 % wt/wt and 0.1676 % wt/wt
same,CBCA,[2],0.57 and 0.71 and 0.64 (2×)
same,CBD,[2],0.16 and 0 and 0.12 and 0.14
same,CBDA,[2],11.86 and 14.25 and 13.12 and 12.73
same,CBGA,[2],0.28 and 0.44 and 0.34 and 0.31
same,Limonene,[2],0.1352 % wt/wt and 0.1309 % wt/wt and 0.1572 % wt/wt and 0.1215 % wt/wt
same,THCA,[2],0.52 and 0.63 and 0.57 and 0.54
same,Total CBD,[2],10.55 and 12.5 and 11.63 and 11.31
same,Total CBG,[2],0.24 and 16.03 and 0.29 and 0.27
same,Total cannabinoids,[2],13.39 and 16.03 and 14.79 and 14.36
same,Total d9THC,[2],0.45 and 0.55 and 0.5 and 0.48
same,alpha-pinene,[2],0.0293 % wt/wt and 0.0283 % wt/wt and 0.0335 % wt/wt and 0 % wt/wt
same,beta-myrcene,[2],0.9825 % wt/wt and 1.0146 % wt/wt and 1.2146 % wt/wt and 0.9497 % wt/wt
same,beta-pinene,[2],0.0269 % wt/wt and 0.0238 % wt/wt and 0.0245 % wt/wt and 0 % wt/wt
same,total terpenes,[2],1.73 % wt/wt and 1.67 % wt/wt and 1.92 % wt/wt and 1.51 % wt/wt
same,Alpha-bisabolol,[3],0.1242 % wt/wt
same,Alpha-humulene,[3],0.0859 % wt/wt
same,Beta-caryophyllene,[3],0.2106 % wt/wt
same,CBCA,[3],0.6275
same,CBD,[3],0.29
same,CBDA,[3],12.9825
same,CBGA,[3],0.2975
same,Limonene,[3],0.1168 % wt/wt
same,THCA,[3],0.565
same,Total CBD,[3],11.6725
same,Total CBG,[3],0.2625
same,Total cannabinoids,[3],14.7625
same,Total d9THC,[3],0.495
same,alpha-pinene,[3],0.0132 % wt/wt
same,beta-myrcene,[3],0.9189 % wt/wt
same,beta-pinene,[3],0.02055 % wt/wt
same,total terpenes,[3],1.5875 % wt/wt
same,Alpha-bisabolol,[4],0.1239 % wt/wt and 0.1229 % wt/wt and 0.1255 % wt/wt and 0.1245 % wt/wt
same,Alpha-humulene,[4],0.0851 % wt/wt and 0.0781 % wt/wt and 0.0861 % wt/wt and 0.0943 % wt/wt
same,Beta-caryophyllene,[4],0.2071 % wt/wt and 0.1897 % wt/wt and 0.208 % wt/wt and 0.2377 % wt/wt
same,CBCA,[4],0.63 (2×) and 0.65 and 0.6
same,CBD,[4],0.28 and 0.36 and 0.38 and 0.14
same,CBDA,[4],13.17 (2×) and 12.87 and 12.72
same,CBGA,[4],0.33 and 0.31 and 0.26 and 0.29
same,Limonene,[4],0.1049 % wt/wt and 0.1307 % wt/wt and 0.0983 % wt/wt and 0.1334 % wt/wt
same,THCA,[4],0.57 (2×) and 0.56 (2×)
same,Total CBD,[4],11.83 and 11.9 and 11.67 and 11.29
same,Total CBG,[4],0.29 and 0.27 and 0.23 and 0.26
same,Total cannabinoids,[4],14.98 and 15.06 and 14.7 and 14.31
same,Total d9THC,[4],0.5 (2×) and 0.49 (2×)
same,alpha-pinene,[4],0 % wt/wt (2×) and 0.0253 % wt/wt and 0.0275 % wt/wt
same,beta-myrcene,[4],0.8032 % wt/wt and 1.0724 % wt/wt and 0.7447 % wt/wt and 1.0552 % wt/wt
same,beta-pinene,[4],0.0189 % wt/wt and 0.021 % wt/wt and 0.019 % wt/wt and 0.0233 % wt/wt
same,total terpenes,[4],1.44 % wt/wt and 1.73 % wt/wt and 1.38 % wt/wt and 1.8 % wt/wt
same,Alpha-bisabolol,[5],0.112 % wt/wt
same,Alpha-humulene,[5],0.08165 % wt/wt
same,Beta-caryophyllene,[5],0.2043 % wt/wt
same,CBCA,[5],0.675
same,CBD,[5],0.125
same,CBDA,[5],13.16
same,CBGA,[5],0.365
same,Limonene,[5],0.09595 % wt/wt
same,THCA,[5],0.575
same,Total CBD,[5],11.665
same,Total CBG,[5],0.315
same,Total cannabinoids,[5],14.9
same,Total d9THC,[5],0.505
same,alpha-pinene,[5],0 % wt/wt
same,beta-myrcene,[5],0.7442 % wt/wt
same,beta-pinene,[5],0.01015 % wt/wt
same,total terpenes,[5],1.345 % wt/wt
same,plants died before the end of the experiment,7.5 mM foliar spray,Two plants
same,Alpha-bisabolol,[6],0.1165 % wt/wt and 0.1076 % wt/wt
same,Alpha-humulene,[6],0.0802 % wt/wt and 0.0831 % wt/wt
same,Beta-caryophyllene,[6],0.2 % wt/wt and 0.2086 % wt/wt
same,CBCA,[6],0.63 and 0.72
same,CBD,[6],0.14 and 0.11
same,CBDA,[6],12.43 and 13.89
same,CBGA,[6],0.36 and 0.37
same,Limonene,[6],0.0965 % wt/wt and 0.0954 % wt/wt
same,THCA,[6],0.53 and 0.62
same,Total CBD,[6],11.04 and 12.29
same,Total CBG,[6],0.31 and 0.32
same,Total cannabinoids,[6],14.09 and 15.71
same,Total d9THC,[6],0.47 and 0.54
same,alpha-pinene,[6],0 % wt/wt
same,beta-myrcene,[6],0.7818 % wt/wt and 0.7066 % wt/wt
same,beta-pinene,[6],0.0203 % wt/wt and 0 % wt/wt
same,total terpenes,[6],1.39 % wt/wt and 1.3 % wt/wt
same,Alpha-bisabolol,[7],1.477 % wt/wt
same,Alpha-humulene,[7],0.1323 % wt/wt
same,Beta-caryophyllene,[7],0.0874 % wt/wt
same,CBCA,[7],0.643
same,CBD,[7],0.24
same,CBDA,[7],12.936
same,CBGA,[7],0.33
same,Limonene,[7],0.2188 % wt/wt
same,THCA,[7],0.56
same,Total CBD,[7],11.58
same,Total CBG,[7],0.29
same,Total cannabinoids,[7],14.71
same,Total d9THC,[7],0.493
same,alpha-pinene,[7],0.023 % wt/wt
same,beta-myrcene,[7],0.1067 % wt/wt
same,beta-pinene,[7],0.8058 % wt/wt
same,total terpenes,[7],0.023 % wt/wt
same,plants died before the end of the experiment,10 mM foliar spray,one plant
same,Alpha-bisabolol,[8],0.1507 % wt/wt and 0.143 % wt/wt and 0.1033 % wt/wt
same,Alpha-humulene,[8],0.0955 % wt/wt and 0.0751 % wt/wt and 0.0916 % wt/wt
same,Beta-caryophyllene,[8],0.2372 % wt/wt and 0.1978 % wt/wt and 0.2214 % wt/wt
same,CBCA,[8],0.62 and 0.71 and 0.6
same,CBD,[8],0.18 and 0.34 and 0.2
same,CBDA,[8],12.76 and 14.33 and 11.72
same,CBGA,[8],0.26 and 0.41 and 0.32
same,Limonene,[8],0.1165 % wt/wt and 0.0884 % wt/wt and 0.1154 % wt/wt
same,THCA,[8],0.56 and 0.62 and 0.5
same,Total CBD,[8],11.36 and 12.9 and 10.48
same,Total CBG,[8],0.23 and 0.36 and 0.28
same,Total cannabinoids,[8],14.38 and 16.41 and 13.34
same,Total d9THC,[8],0.49 and 0.55 and 0.44
same,alpha-pinene,[8],0 % wt/wt
same,beta-myrcene,[8],0.8838 % wt/wt and 0.6844 % wt/wt and 0.8492 % wt/wt
same,beta-pinene,[8],0.0249 % wt/wt and 0.0217 % wt/wt and 0.0224 % wt/wt
same,total terpenes,[8],1.62 % wt/wt and 1.3 % wt/wt and 1.51 % wt/wt
same,plant growth effects on clonal hemp plants in the vegetative stage,"all concentrations (1-10 mM), compared to all tested concentrations of MS",beneficial plant growth effects
same,total terpene content,application of 1 mM or 4.25 mM,increased

# — patent US11638427B2, “Methods and compositions for altering secondary metabolites in plants” (Impello Biosciences, Inc, priority 2020, dated 2023)
